Results from patent publication US10214491B2, “Activators and therapeutic applications thereof” (THE JOHNS HOPKINS UNIVERSITY, priority 2007, dated 2019).

What was measured:
[1] = tested on: WS-1 diploid fibroblast; test: WST-1 cell viability assay, WS-1; type: cell-based, human; details: Homo sapiens, 72 h, three days
Description: (§1) The effect of the compounds selected using the screening assay on the viability of several tumor cell lines as well as diploid cell lines and cell strains was studied. Cells were plated in 96-well plates at a density of 10,000 cells/100 μL/well and were incubated overnight. The following day compound dilutions ranging from 0 to 40 μM were applied to the cells in triplicate and the cells were incubated with the compounds for three days. Cell viability was assayed using the WST-1 cell proliferation reagent (Roche Diagnostics, Germany) The WST-1 reagent was diluted 1:10 in cell culture media and 100 μL of the reagent dilution was applied onto cells followed by 1 hour incubation at +37° C. The specific absorbance was measured at 450 nm and a reference absorbance was measured at 690 nm. […] Analysis for Protein Levels

[2] = tested on: normal human primary melanocytes; test: WST-1 cell viability assay, melanocytes; type: cell-based; details: Homo sapiens, 72 h, Melanocyte, three days
Description: as §1

[3] = In vivo toxicity tests; details: mice; for toxicity by weight curves, macroscopical pathologies, hematoxylin-eosin staining of tissues: 9 doses/3 weeks
Description: Acute and chronic toxicity of the compounds was tested on FVB/N mice. Female mice of 4-6 weeks old were purchased from Harlan and 2 animals were used per compound dose. The mice were injected intraperitoneally with the compounds three times a week for three weeks in 30 microL DMSO. Two animals received vehicle only (=30 μL DMSO). The animals were weighed prior to injections and were monitored for any signs of toxicity, distress or unusual behaviour. The animals were sacrificed three days after receiving the final injection. The liver, kidney, spleen, small intestine and thymus were excised and fixed in 4% paraformaldehyde overnight, and processed into paraffin-blocks. Haematoxylin-eosin staining (HE staining) of the tissues was performed using standard immunohistological techniques.

[4] = tested on: A375 melanoma cells; test: Flow cytometry cell cycle and apoptosis analysis; type: cell-based
Description: Cell cycle analysis and cellular apoptosis was assayed with flow cytometry (LSR, Beckton Dickinson). Cells were treated with the compounds and both floating and adherent cells were harvested and fixed in 70% ethanol at −20° C. followed by staining of DNA with propidium iodide. A total of 10,000 counts were collected and data was analysed using ModFit LT 3.1 software. Cells present in sub-G1 population were regarded as apoptotic.

[5] = tested on: A375 melanoma (WTp53); test: WST-1 cell viability assay, A375; type: cell-based; details: Homo sapiens, A-375, 72 h; A375 melanoma (WTp53), three days, WST-1
Description: as §1

[6] = tested on: p53, Mdm2 and p21 levels in A375 melanoma cells; test: Immunoblotting and immunofluorescence for p53, Mdm2 and p21 levels; type: cell-based; details: A375, 24 hours
Description: To study the effect of compounds on endogenous protein levels, A375 melanoma cells were treated with the compounds for 24 hours. Cellular lysates were prepared in lysis buffer containing 0.5% NP-40 with proteinase inhibitors. Protein (20-30 μg) was separated by sodium dodecyl sulphate-polyacrylamide gel electrophoresis (SDS-PAGE) followed by transfer to PVDF membrane (Immobilon™-P, Millipore, Bedford, Mass., USA). Immunoblotting was carried out using DO-1 antibody for p53, 2A10 for Mdm2 and anti-p21 (Becton Dickinson) to detect p21, followed by secondary antibodies conjugated with horseradish peroxidase (p53) or biotin followed by streptavidin-horseradish peroxidase (Mdm2 and p21) after which proteins were detected with enhanced chemiluminescence (ECL, Amersham Life Sciences). Equal protein loading was verified using GAPDH (p9.B.88, Europa Bioproducts Ltd, UK) as a protein loading control.
Immunofluorescence staining was carried out to determine the correct localisation of p53 and to detect H2AX phosphorylation indicative of genotoxic stress. Cells were treated with the compounds and fixed in paraformaldehyde (3.5 PFA, 25 min RT). The coverslips were permeabilised in 0.5% NP-40 and blocked in 3% bovine serum albumin (BSA). p53 was detected by staining with FL-393 antibody (Santa Cruz, 1:50, 1 h at +37° C.) followed by Alexa-594 conjugated secondary antibody (Molecular Probes, 1:200, 1 h at +37° C.), phospho-H2AX was detected by staining with anti-H2AX (P-Ser-139) antibody (Upstate, 1:200 1 h at +37° C.) followed by Alexa-488 conjugated secondary antibody (Molecular Probes, 1:200, 1 h at +37° C.). Nuclei were stained with Hoechst 33342. Images were captured using the Zeiss Axioplan fluorescence microscope equipped with Zeiss AxioCam HRc CCD-camera and AxioVision 4.5 software using 40×, NA=0,75 objective, Chroma 31000, Chroma41001 and 41004 filters for Hoechst, Alexa488 and Alexa594, respectively.

For CN(C)CCNC(=O)c1cccn2c(=O)c3cc4ccccc4cc3nc12 [Compound 21], the IC50 [1] was 1.9 µM, the IC50 [2] was > 40 µM and the “acute or chronic toxicities based on histological HE-stainings” value ([3]; i.p., 0.5, 1, 2 mg/kg three times a week for three weeks) was “No acute or chronic toxicities were observed”. For the same molecule, the “toxicity by weight curves, macroscopical pathologies, hematoxylin-eosin staining of tissues” value ([3]; i.p., 0.5, 1, 2 mg/kg) was “did not show any apparent toxicity”, the “cell cycle / apoptosis phenotype” value ([4]; A375, 0.1 μM (three days) and 0.5 μM (six days)) was “G2-phase arrest and apoptosis” and the IC50 [5] was 700 nM. For the same molecule, the Mdm2 induction ([6]; 0.5 μM) was “most prominent” and the “induction of p21 cyclin kinase inhibitor” value ([6]; 0.5 μM) was “most prominent”.
With Cc1cc(C)c2nc3nc(C)cc(C)c3c(N)c2c1 [Compound 22, 2,4,7,9-tetramethylbenzo[b]-1,8-naphthyridin-5-amine] the IC50 [1] was 11.5 µM, the IC50 [2] was 32.2 µM and the “acute or chronic toxicities based on histological HE-stainings” value ([3]; i.p., 5, 10 and 20 mg/kg three times a week for three weeks) was “No acute or chronic toxicities were observed”. The “toxicity by weight curves, macroscopical pathologies, hematoxylin-eosin staining of tissues” value ([3]; i.p., 5, 10 and 20 mg/kg) was “did not show any apparent toxicity”, the “cell cycle / apoptosis phenotype” value ([4]; A375, three days at 10 μM or six days at 5 μM) was “G2-phase arrest and apoptosis” and the IC50 [5] was 4600 nM. The Mdm2 induction ([6]; 5 μM) was “most prominent”.
